The values that follow come from publication PMC10205807, “Cross-species comparison in nonclinical pharmacokinetics of lenvatinib by a simple HPLC with ultraviolet detection” (Scientific Reports, 2023).

Data set [1] in a line: phase-1 clinical trial, oral PK in humans. In kind it is in vivo. As to conditions: human, plasma; calculated from AUCoral at 9 mg oral dose in a phase-1 study and fp 0.0172; read-out: observed CLint in humans (converted).
The nature of data set [2]: Stability of lenvatinib in rat plasma and processed samples. Format: physicochemical, rats. As to conditions: for Processed sample stability, mean percentage bias from the theoretical values: processed rat plasma samples, 4 °C, 7 days. On the procedure:
Calibration samples and QC samples for the reproducibility assessment were prepared by spiking 0.05 mL of the working standard solutions to blank plasma (0.05 mL), and QC samples for the stability assessment were prepared by fortifying 0.05 mL of the solution to 1.5 mL of bank plasma. Lenvatinib concentrations in plasma were 0.005, 0.01, 0.03, 0.1, 0.3, 1, 3, 10, 30, and 100 μg/mL for the calibration samples, and were 0.005, 0.01, 1, and 100 μg/mL for the QC samples for reproducibility assessment. Lenvatinib concentrations of QC samples for the stability assessment were 0.01, 1, and 80 μg/mL.
The developed method for the determination of lenvatinib concentrations in plasma was validated and the following validation parameters including linearity, selectivity, intra- and inter-batch reproducibility, extraction recovery, and stability were evaluated in accordance with the bioanalytical guidelines by United States Food and Drug Administration (US-FDA)[7]. The peak height ratios of lenvatinib to the IS of calibration samples were plotted against the corresponding nominal concentrations of lenvatinib. The calibration curve was prepared by the least square method with 1/(concentration)^2 as the weighting factor. In the linearity assessment, accuracy of each calibration sample was determined to ensure that relative error (RE) at each concentration was within ± 15% (within ± 20% at the LLOQ). […] Intra-batch accuracy and precision were evaluated using QC samples at the four concentrations, LLOQ, low QC (LQC), mid QC (MQC), and ULOQ. […] Inter-batch accuracy and precision were evaluated by testing a single sample at each concentration across five batches (n = 5 in total). […] Extraction recoveries of lenvatinib and the IS from plasma samples of the four species were evaluated. The recoveries of lenvatinib at the low, mid, and high QC levels (triplicates per concentration), and that of the IS (0.5 μg/mL) were determined. […] Stability of lenvatinib in plasma and processed samples was assessed at the low and high QC levels. Lenvatinib concentrations in samples after storage were compared to the theoretical concentrations and RE values were calculated. […] Freeze–thaw stability in plasma was evaluated up to three freeze–thaw cycles and frozen stability in plasma was evaluated at − 15 °C or below for 4 weeks (mice, rats, and dogs) or 6 weeks (monkeys). Stability in processed samples was assessed at 4 °C for 7 days. Stability of lenvatinib in the standard solutions was evaluated for the stock (100 μg/mL) and the working solution (5 ng/mL). The stability of the IS solution (0.5 μg/mL) was also assessed. […]

Data set [3] concerns plasma protein. Briefly: in vitro plasma protein binding, mice. In kind it is in vitro ADME. As to conditions: mouse.
Data set [4] is described as follows: Allometric PK scaling, prediction of CLint in humans. The note with it: cross-species allometric scaling, BW 70 kg. On the procedure:
One of the typical approaches for predicting human PK from animal PK is empirical allometric scaling. As the CLtot of lenvatinib was relatively low and Vdss of lenvatinib was low to medium, thus it is theoretically preferable to correct by fp for both parameters. The CLtot divided by fp (CLtot/fp) or Vdss divided by fp (Vdss/fp) were plotted against body weight (BW) by log–log scale, and a linear regression was performed to estimate a slope and intercept for linear regression. The BW used in the calculation was 0.02, 0.2, 10, 5, and 70 kg for mice, rats, dogs, monkeys, and humans, respectively. CLtot and Vdss of lenvatinib in humans were predicted by using the regression line and the BW of humans. As no PK data of lenvatinib are available for CLtot and Vdss, which can be estimated only from intravenous administration PK study in humans, it is not possible to assess predictability of the allometric scaling for these two parameters of lenvatinib in humans. However, it is possible to predict exposure of lenvatinib after oral administration (AUCoral) in humans from the allometry scaling of hepatic intrinsic clearance (CLint). […]

Data set [5] concerns plasma protein. The data set is described as follows: in vitro plasma protein binding, rats. In kind it is in vitro ADME.

With `COc1cc2nccc(Oc3ccc(NC(=O)NC4CC4)c(Cl)c3)c2cc1C(N)=O` [lenvatinib, Lenvatinib], in data set [1], the CLint scaled was 75.1 mL/min/kg. For the same molecule, the “Processed sample stability, mean percentage bias from the theoretical values” worked out at 0.3% in data set [2] (HQC 80 μg/mL) and 0.2% in data set [2] (MQC 1 μg/mL). The “Freeze/thaw stability, mean percentage bias from the theoretical values” in data set [2] (rat plasma, 3 cycles, MQC 1 μg/mL) came to 3.6%. The “Frozen stability, mean percentage bias from the theoretical values” in data set [2] (rat plasma, below − 15 °C, 4 weeks, LQC 0.01 μg/mL) came to 1.0%. Also, the fraction unbound worked out at 0.033 with plasma protein [3] (plasma, mice, 0.3–30 μg/mL, read-out: average fp (unbound fraction in plasma)) and 0.02 in the data set with plasma protein [5] (rat, plasma, rats, 0.3–30 μg/mL, read-out: average fp (unbound fraction in plasma)). Besides, the fraction unbound at 0.3 μg/mL is 0.031 in the data set on plasma protein [3] (mice plasma, 0.3 μg/mL) and 0.019 in the data set with plasma protein [5] (rat plasma, 0.3 μg/mL). Moreover, the “CLint predicted in humans” value in data set [4] was 78.4 mL/min/kg.

As a reminder, the fraction unbound is the share of the substance not bound to proteins or other matrix.
